The results in this text go back to patent publication US20250213712A1, “ANTIBODY DRUG CONJUGATES COMPRISING CAMPTOTHECIN DERIVATIVES AND USES THEREOF” (priority 2023, published 2025).

Experiment in all cases: In vitro analysis of drugs (MTT cell viability)
One assay deals with NCI-N87 cancer cells. In kind it is cell-based, human. Conditions: read-out: IC50 ± SD (nM) NCI-N87 (Gastric). On the procedure: (§1) The drugs (compounds D1-D6, D21, D25, D27, D28, D35-D37, D46, D47, D48, D49 and controls DXd, FL118 and SN38) were evaluated on NCI-N87, MDA-MB-468, SK-BR-3, HCT116, and JIMT-1 cancer cells. The cancer cells were seeded in 96-well plates at a density of 2,000 to 5,000 cells per well in 100 µL of medium and cultured for 22 to 26 hours. The series of compound was diluted by serial dilution of 1:4˜1:8 from 2 μM to 1 pM with DMSO. The diluted drugs were added to triplicate wells of 96-well plates at 50 μL per well. All assays were performed, by repeating up to 3 times and the results were obtained in up to 3 independent experiments. The plates were incubated for 6 days at 37° C. in a humidified 5% CO2-in-air atmosphere. Cell viability was determined by the MTT assay. The 15 μL of 3-(4,5-dimethylthiazol-2-yl)-2,5-diphenyltetrazolium bromide (MTT) dye dissolved in PBS buffer solution (5 mg/mL) was added to each well of the plates. The formazans formed by reduction of the MTT dye by mitochondrial oxidoreductases in the living cells were dissolved in DMSO, the formazans measured using the absorbance at 550 nm. IC50 (half maximal inhibitory concentration) was generated using a sigmoidal dose-response nonlinear regression curve fit (GraphPad software Inc.).

The next assay has as its system SK-BR-3 cancer cells. In kind it is cell-based. Conditions: read-out: IC50 ± SD (nM) SK-BR3 (Breast). On the procedure: as §1
A further assay deals with MDA-MB-468 cancer cells. In kind it is cell-based. The settings on record: read-out: IC50 ± SD (nM) MDA-MB-468 (TNBC). The protocol:
as §1

The mark [1] stands for this setting: Homo sapiens, MDA-MB-468, 144 h.
Setting [2] is: Drugs, expression level 13.2 × 10^5, 6 days, MTT.
Where [3] appears, read: Drugs, expression level 21.8 × 10^5, 6 days, MTT.
[4] abbreviates: Drugs, expression level 0.003 × 10^5, 6 days, MTT.

Read-outs that look alike come from different tables or passages of the source.

For orientation: IC50 means the point on the concentration scale where inhibition reaches its midpoint. Take `CC[C@@]1(O)C(=O)OCc2c1cc1n(c2=O)Cc2c-1nc1cc3c(cc1c2-c1ccc(O)cc1)OCO3` [Compound D21]: the IC50 in the assay on NCI-N87 cancer cells (Homo sapiens, NCI-N87, 144 h) was determined as 1.49 ± 0.53 nM; in the assay on SK-BR-3 cancer cells (Homo sapiens, SK-BR-3, 144 h), 0.61 ± 0.03 nM; with MDA-MB-468 cancer cells (setting [1]) it was 0.38 ± 0.14 nM.

Consider `CC[C@@]1(O)C(=O)OCc2c1cc1n(c2=O)Cc2c-1nc1cc(F)c(O)c3c1c2C(O)CC3` (some centres unmarked) [Compound D25], for which the IC50 was 27.6 ± 8.26 nM with NCI-N87 cancer cells (Homo sapiens, NCI-N87, 144 h); 2.81 ± 0.43 nM with SK-BR-3 cancer cells (Homo sapiens, SK-BR-3, 144 h); 4.49 ± 0.76 nM in the assay with MDA-MB-468 cancer cells (setting [1]).

Consider `CC[C@@]1(O)C(=O)OCc2c1cc1n(c2=O)Cc2c-1nc1cc(F)c(O)cc1c2-c1ccco1` [Compound D27], for which the 50% inhibitory concentration (IC50) turned out to be 6.52 ± 0.45 nM in the assay with NCI-N87 cancer cells (Homo sapiens, NCI-N87, 144 h); 1.79 ± 0.34 nM with SK-BR-3 cancer cells (Homo sapiens, SK-BR-3, 144 h); 0.86 ± 0.11 nM with MDA-MB-468 cancer cells (setting [1]).

As for `CC[C@@]1(O)C(=O)OCc2c1cc1n(c2=O)Cc2c-1nc1cc(F)c(O)cc1c2-c1ccoc1` [Compound D28], the IC50 in the assay with NCI-N87 cancer cells (Homo sapiens, NCI-N87, 144 h) turned out to be 12.7 ± 4.2 nM; in the assay on SK-BR-3 cancer cells (Homo sapiens, SK-BR-3, 144 h) it was 5.31 ± 0.55 nM; in the assay with MDA-MB-468 cancer cells (setting [1]), 2.45 ± 0.37 nM.

`CC[C@@]1(O)C(=O)OCc2c1cc1n(c2=O)Cc2c-1nc1cc3c(cc1c2CCc1ccc(O)cc1)OCO3` [Compound D35]: the IC50 in the assay on NCI-N87 cancer cells (Homo sapiens, NCI-N87, 144 h) was determined as 5.57 nM; in the assay with MDA-MB-468 cancer cells (setting [1]) it was 1.71 nM.

Regarding `CC[C@@]1(O)C(=O)OCc2c1cc1n(c2=O)Cc2c-1nc1cc3c(cc1c2-c1cccc(O)c1)OCO3` [Compound D36], the IC50 amounted to 1.19 ± 0.02 nM in the assay on NCI-N87 cancer cells (Homo sapiens, NCI-N87, 144 h); 0.91 ± 0.13 nM in the assay with SK-BR-3 cancer cells (Homo sapiens, SK-BR-3, 144 h); 0.52 ± 0.29 nM in the assay with MDA-MB-468 cancer cells (setting [1]).

As for `CC[C@@]1(O)C(=O)OCc2c1cc1n(c2=O)Cc2c-1nc1cc(F)c(C)cc1c2-c1ccc(O)cc1` [Compound D37], the IC50 is 1.19 ± 0.25 nM in the assay with NCI-N87 cancer cells (Homo sapiens, NCI-N87, 144 h); 0.89 ± 0.06 nM in the assay with SK-BR-3 cancer cells (Homo sapiens, SK-BR-3, 144 h); 0.36 ± 0.23 nM in the assay on MDA-MB-468 cancer cells (setting [1]).

Turning to `CC[C@@]1(O)C(=O)OCc2c1cc1n(c2=O)Cc2c-1nc1cc(F)c(C)c3c1c2[C@@H](NCc1ccc(O)cc1)CC3` [Compound D46], the half-inhibitory concentration (IC50) in the assay on NCI-N87 cancer cells (Homo sapiens, NCI-N87, 144 h) is 2.2 ± 0.13 nM; with SK-BR-3 cancer cells (Homo sapiens, SK-BR-3, 144 h), 1.73 ± 0.19 nM; in the assay with MDA-MB-468 cancer cells (setting [1]) it was 0.92 ± 0.12 nM.

For the compound `CC[C@@]1(O)C(=O)OCc2c1cc1n(c2=O)Cc2c-1nc1cc(F)c(C)c3c1c2[C@@H](NCCc1ccc(O)cc1)CC3` [Compound D47], the IC50 with NCI-N87 cancer cells (Homo sapiens, NCI-N87, 144 h) turned out to be 2.13 nM; in the assay with SK-BR-3 cancer cells (Homo sapiens, SK-BR-3, 144 h), 1.8 nM; in the assay with MDA-MB-468 cancer cells (setting [1]), 0.96 nM.

In the case of `CC[C@@]1(O)C(=O)OCc2c1cc1n(c2=O)Cc2c-1nc1cc(F)c(C)c3c1c2[C@@H](NC(=O)C(C)(O)C(F)(F)F)CC3` (some centres unmarked) [Compound D48], the IC50 with NCI-N87 cancer cells (Homo sapiens, NCI-N87, 144 h) was 1.59 ± 0.09 nM; with SK-BR-3 cancer cells (Homo sapiens, SK-BR-3, 144 h), 1.06 ± 0.15 nM; with MDA-MB-468 cancer cells (setting [1]) it was 0.4 ± 0.11 nM.

Regarding `CC[C@@]1(O)C(=O)OCc2c1cc1n(c2=O)Cc2c-1nc1cc(F)c(C)c3c1c2[C@@H](NC(=O)Cc1ccc(O)cc1)CC3` [Compound D49], the IC50 with NCI-N87 cancer cells (Homo sapiens, NCI-N87, 144 h) turned out to be 6.11 ± 0.19 nM; with SK-BR-3 cancer cells (Homo sapiens, SK-BR-3, 144 h) it was 1.79 ± 0.24 nM; in the assay on MDA-MB-468 cancer cells (setting [1]), 0.83 ± 0.01 nM.

`CC[C@@]1(O)C(=O)OCc2c1cc1n(c2=O)Cc2c-1nc1cc(F)c(C)c3c1c2[C@@H](NC(=O)CO)CC3` [DXd, reference compound]: the results for the IC50 with NCI-N87 cancer cells (setting [2]), in the assay with SK-BR-3 cancer cells (setting [3]) and with MDA-MB-468 cancer cells (setting [4]) were 7.12 ± 1.75 nM, 1.87 ± 0.49 nM and 0.82 ± 0.3 nM, respectively.

On to `CC[C@@]1(O)C(=O)OCc2c1cc1n(c2=O)Cc2cc3cc4c(cc3nc2-1)OCO4` [FL118, reference compound], for which the results for the IC50 with NCI-N87 cancer cells (setting [2]), in the assay on SK-BR-3 cancer cells (setting [3]) and in the assay with MDA-MB-468 cancer cells (setting [4]) were 1.04 ± 0.18 nM, 0.86 ± 0.1 nM and 0.37 ± 0.17 nM, respectively.

Regarding `CCc1c2c(nc3ccc(O)cc13)-c1cc3c(c(=O)n1C2)COC(=O)[C@]3(O)CC` [SN38, reference compound], the concentration for half-maximal inhibition (IC50) with NCI-N87 cancer cells (setting [2]) is 6.52 ± 1.55 nM; with SK-BR-3 cancer cells (setting [3]) it was 1.82 ± 1.21 nM; in the assay with MDA-MB-468 cancer cells (setting [4]), 0.68 ± 0.14 nM.
